# Where a SMILES comes first, the peptide text is derived from it. Bridges are numbered along the chain shown (N, C = ends). Where no end group is shown, it is not given here. [ ]: non-standard residue; d: D form. The star is where a group is joined. X1 = CC[C@H](C)CCCCC(=O)*; Dab = NCC[C@H](N)C(=O)O
# Key:
# [1] = test system: opsonized S. aureus JE2 WT in human neutrophils; conditions: 1 h incubation, MOI 1, opsonized with 10% normal human serum; mean of at least seven replicates; without DPI 49.9%
# Experimental: (§1) Blood was collected from healthy adult volunteers and written informed consent was given. Isolation of neutrophils was performed following the procedure described in[36]. All methods were carried out in accordance with relevant guidelines and regulations. The institutional review board (IRB) of the University of Tübingen approved the study and all adult subjects provided informed consent. This study was done in accordance with the ethics committee of the medical faculty of the University of Tübingen that approved the study, Approval number 015/2014 BO2. Briefly, heparinized blood was diluted 1:1 (v/v) with PBS containing 0.5% BSA and 2 mM EDTA and layered onto a gradient of Biocoll (density, 1.077 g/ml; Biochrom) and Histopaque (density, 1.119 g/ml; Sigma). After centrifugation for 20 min at 380×g, neutrophils were collected from the Histopaque phase. Cells were subjected to a brief hypotonic shock with ultrapure-water containing 155 mM ammonium chloride, 1 mM potassium hydrogen carbonate and 0.1 mM EDTA at pH 7.4, washed, and suspended at 2.5 × 10^6 cells/ml in RPMI containing […] HSA, 2 mM glutamine, 2 mM sodium pyruvate and 10 mM HEPES.
# (§2) Starter cultures of S. aureus JE2 and its respective atpA mutant were grown in TSB medium overnight.
# [2] = test system: opsonized S. aureus JE2 atpA mutant in human neutrophils; conditions: 1 h incubation, MOI 1, opsonized with 10% normal human serum; mean of at least seven replicates; without DPI 39.2%
# Experimental: as §1, §2
# [3] = test system: menD::ΦNΣ; assay: Etest MIC on TSA; format: cell-based, Staphylococcus aureus; conditions: 37 °C, 24 h
# Experimental: (§3) The MIC for polymyxin B was determined using Etest (bioMérieux, France) in the absence and in the presence of sub-inhibitory concentrations (0.0625x–0.25 × MIC) of resveratrol or menadione (1 µg/ml, Sigma). From overnight cultures, strains were diluted to approximately 10^8 CFU/ml and then distributed on TSA plates using a sterile cotton swab.
# [4] = test system: atpA^+ (allelic exchange of transposon insertion with intact atpA gene); assay: Etest MIC on TSA; format: cell-based, Staphylococcus aureus; conditions: 37 °C, 24 h
# Experimental: as §3
# [5] = test system: S. aureus JE2; assay: Etest MIC on TSA; format: cell-based, Staphylococcus aureus; conditions: 37 °C, 24 h
# Experimental: as §3
# [6] = test system: atpA::ΦNΣ; assay: Etest MIC on TSA; format: cell-based, Staphylococcus aureus; conditions: 37 °C, 24 h
# Experimental: as §3
# [7] = test system: S. aureus JE2; assay: Two-fold broth microdilution MIC in TSB; format: cell-based; conditions: Staphylococcus aureus, JE2, 24 h
# Experimental: The minimum inhibitory concentration for resveratrol was determined using a two-fold broth microdilution assay in TSB (100 µl) with an initial inoculum of approximately 5 × 10^5 cells/ml.
# [8] = test system: S. aureus JE2 (WT); assay: Bacterial cell survival assay (CFU after 2 h exposure in NaPi); format: cell-based, Staphylococcus aureus
# Experimental: (§4) From overnight cultures of S. aureus JE2 and mutants, 10 μl was diluted into 990 μl fresh TSB medium in a falcon tube and grown for 2 h for the cells to reach early exponential phase. After 2 h the cultures were re-suspended in 10 mM sodium phosphate buffer (pH 7.4), termed NaPi (Medicago, Sweden). Cells were subsequently diluted in NaPi to approximately 5 × 10^5 CFU/ml, and combined with antimicrobial peptides and resveratrol when indicated, to a final volume of 100 µl and incubated in 96-well plates with shaking for 2 h at 37 °C. Bacteria were plated for CFU on TSA plates. Following overnight incubation at 37 °C for 24 h, viable cells were enumerated and relative cell survival was calculated as CFUwith peptide/CFUwithout peptide at 2 h post-exposure.
# [9] = test system: S. aureus JE2 atpA mutant (atpA::ΦNΣ); assay: as above; format: cell-based, Staphylococcus aureus; conditions: for difference in susceptibility / survival between atpA mutant and WT (in words): 2 h exposure at the concentrations highlighted in Fig. 1a
# Experimental: as §4
# [10] = test system: S. aureus JE2 menD mutant (menD::ΦNΣ); assay: as above; format: cell-based, Staphylococcus aureus; conditions: hBD4 5 µM
# Experimental: as §4
# [11] = test system: S. aureus JE2 atpB mutant (atpB::ΦNΣ); assay: as above; format: cell-based, Staphylococcus aureus; conditions: hBD4 5 µM
# Experimental: as §4
# [12] = test system: S. aureus JE2 atpG mutant (atpG::ΦNΣ); assay: as above; format: cell-based, Staphylococcus aureus; conditions: hBD4 5 µM
# Experimental: as §4
molecule,measurement,setting,value
"c1ccc2c(c1)[I+]c1ccccc1-2 [DPI, diphenyleneiodonium]","surviving WT cells in DPI-treated neutrophils, percentage of initial counts",[1],91.4%
same,"surviving atpA cells in DPI-treated neutrophils, percentage of initial counts",[2],74.3%
CC[C@H](C)CCCCC(=O)N[C@@H](CCN)C(=O)N[C@H](C(=O)N[C@@H](CCN)C(=O)N[C@H]1CCNC(=O)[C@H]([C@@H](C)O)NC(=O)[C@H](CCN)NC(=O)[C@H](CCN)NC(=O)[C@H](CC(C)C)NC(=O)[C@@H](Cc2ccccc2)NC(=O)[C@H](CCN)NC1=O)[C@@H](C)O [polymyxin B] (X1-[Dab]T[Dab][Dab][Dab][dF]L[Dab][Dab]T; lactam 4-C (inferred); N-terminus assumed),MIC,[3]; TSA + menadione (1 µg/ml),192 µg/mL
same,MIC,[3]; TSA,> 1024 µg/mL
same,MIC,[4],96 µg/mL
same,Polymyxin B MIC,[5]; TSA + 0 µg/ml resveratrol,128 µg/mL
same,Polymyxin B MIC,[5]; TSA + 16 µg/ml resveratrol,64 to 96 µg/mL
same,Polymyxin B MIC,[5]; TSA + 32 µg/ml resveratrol,48 µg/mL
same,Polymyxin B MIC,[5]; TSA + 64 µg/ml resveratrol,24 µg/mL
same,MIC,[5]; TSA,128 µg/mL
same,MIC,[6],16 µg/mL
Oc1ccc(/C=C/c2cc(O)cc(O)c2)cc1 [resveratrol],MIC,[7],256 µg/mL
same,increase in killing of WT S. aureus compared with hBD4 alone,[8]; resveratrol 32 µg/ml in combination with hBD4 5 µM,20 fold
same,impact on S. aureus viability,[8]; resveratrol alone at sub-inhibitory concentration 0.125 × MIC (32 µg/ml),no impact
"LL-37 (LLGDFFRKSKEKIGKEFKRIVQRIKDFLRNLVPRTES; Antibacterial peptide LL-37; UniProt P49913 134-170, looked up) [human antimicrobial peptide of the cathelicidin family (Isca Biochemicals)]",difference in susceptibility / survival between atpA mutant and WT (in words),[9],minor increase in bactericidal activity
"hBD1: human β-defensin 1 (Innovagen) (DHYNCVSSGGQCLYSACPIFTKIQGTCYRGKAKCCK; ends and bridges not checked; cysteine pairing not given here; UniProt P60022 33-68, looked up)",difference in susceptibility / survival between atpA mutant and WT (in words),[9],no differences
"hBD3: human β-defensin 3 (Innovagen) (GIINTLQKYYCRVRGGRCAVLSCLPKEEQIGKCSTRGRKCCRRKK; ends and bridges not checked; cysteine pairing not given here; UniProt P81534 23-67, looked up)",difference in susceptibility / survival between atpA mutant and WT (in words),[9],no differences
"hBD4: human β-defensin 4 (Innovagen) (EFELDRICGYGTARCRKKCRSQEYRIGRCPNTYACCLRKWDESLLNRTKP; ends and bridges not checked; cysteine pairing not given here; UniProt Q8WTQ1 23-72, looked up)",reduction in viable cell count of menD mutant,[10],no reduction in viable cell count
same,difference in susceptibility / survival between atpA mutant and WT (in words),[9],more susceptible
same,greater reduction in viable cells of atpA mutant compared with WT,"[9]; 2 h exposure, concentrations of Fig. 1a (5 µM)",63 fold
same,susceptibility of atpB mutant compared with WT,[11],increased susceptibility
same,susceptibility of atpG mutant compared with WT,[12],increased susceptibility
histatin-5,difference in susceptibility / survival between atpA mutant and WT (in words),[9],minor increase in bactericidal activity

# — paper PMC7347559, “Inhibition of the ATP synthase sensitizes Staphylococcus aureus towards human antimicrobial peptides” (Scientific Reports, 2020)
